Laboratory results published in US6887847B2, “Virus derived antimicrobial peptides” (University of Pittsburgh, priority 2001, dated 2005).
In brackets after ≈: the same amount, converted by molar mass. Residues, ends and D or L forms follow the SMILES beside them. No end group written: not given here.

Experiments:
Staphylococcus aureus = experiment: Bacterial lysis (broth dilution) assay, MBC; type: cell-based
Text: (§1) The assays for growth inhibition of a microbial target can be used to derive a minimum bactericidal concentration (MBC) value for the peptide, i.e., the concentration of peptide required to kill 99.9% of the microbial sample being tested. This value is well known to those in the art as representative of the effectiveness of a particular antimicrobial agent (e.g., an antibiotic) against a particular organism or group of organisms. In assays to detect the MBC of a peptide, growth inhibition of a bacterial population also can be measured with reference to the number of colony forming units (cfu) after exposure to a peptide relative to a control experiment without a peptide.
(§2) Bacterial lysis assay. Bacterial lysis assays were conducted in a manner similar to that described previously (Lehrer, R. I., M. E. Selsted, D. Szklarek, and F. J. 1983. Infect. Immun. 42: 10-4, 1983; Miller, M. A., R. F. Garry, J. M. Jaynes, and R. C. Montelaro, AIDS Res Hum Retroviruses 7: 511-519, 1991). Bacterial suspensions were cultured in Luria-Bertani Broth to mid-log growth phase and washed by two cycles of centrifugation and suspension in 10 mM phosphate buffer. The Abs600 of the suspension was adjusted with 10 mM phosphate buffer such that, upon dilution, 5-10×10^5 cfu/mL would be treated in the assay. Bacteria were incubated for 1 h with two-fold dilutions of peptides (100 μM to 100 nM) in 96-well plates using 10 mM phosphate buffer, pH 7.2, as a diluent. Ten-fold dilutions of bacteria were performed to 1:1000; a 100 μl aliquot from each condition was spread on the surface of tryptic soy agar plates (Difco, Detroit, Mich.) which were incubated overnight. Colonies of surviving bacteria (cfu, colony-forming units) were counted and compared to untreated controls to determine the amount of peptide-induced killing under each condition. Log killing is defined as the log of the ratio of cfu present before and after treatment with peptide. The minimal bactericidal concentration, MBC, is the peptide concentration at which 99.9% (three log) killing is achieved (Pearson et al., Antimicrob. Agents Chemother. 18: 699-708, 1980).
(§3) A limitation of many host-derived antimicrobial peptides is their decreased activity at physiologic (150 mM) NaCl concentration. See Friedrich et al., Antimicrobial Agents and Chemotherapy 43:1542-1548. The peptides WLSA-5 (SEQ ID NO:3) and LL37 were tested against the two index strains at physiologic NaCl. […] The activity of eLLPs and LBUs of this invention were compared to an expanded list of clinical bacterial isolates. These are summarized in Table 2 by comparing their MBCs in phosphate buffer alone (low salt) and phosphate buffer containing 150 mM NaCl (physiologic conditions). Inspection of this table would lead one skilled in the art to conclude that the activity of eLLPs and LBUs compare favorably to the host derived antimicrobial peptides as it relates to the spectrum and potency of antimicrobial activity.

Pseudomonas aeruginosa = type: cell-based
Text: as §1, §2, §3

[1] = 0 mM NaCl (phosphate buffer, low salt)

Compound | MBC (Staphylococcus aureus; [1]) | MBC (Staphylococcus aureus; 150 mM NaCl (physiologic)) | P. aeruginosa killing, influence of NaCl (Pseudomonas aeruginosa; low salt vs physiologic (150 mM) NaCl) | MBC (Pseudomonas aeruginosa; 150 mM NaCl (physiologic))
CC(C)[C@H](NC(=O)[C@H](CCCNC(=N)N)NC(=O)[C@H](CCCNC(=N)N)NC(=O)[C@@H](NC(=O)[C@@H](NC(=O)[C@H](CCCNC(=N)N)NC(=O)[C@@H](N)CCCNC(=N)N)C(C)C)C(C)C)C(=O)N[C@@H](CCCNC(=N)N)C(=O)N[C@@H](CCCNC(=N)N)C(=O)N[C@H](C(=O)N[C@H](C(=O)N[C@@H](CCCNC(=N)N)C(=O)N[C@@H](CCCNC(=N)N)C(=O)N[C@H](C(=O)N[C@H](C(=O)N[C@@H](CCCNC(=N)N)C(=O)N[C@H](C(=O)N[C@H](C(=O)N[C@@H](CCCNC(=N)N)C(=O)N[C@@H](CCCNC(=N)N)C(=O)N[C@H](C(=O)N[C@H](C(=O)N[C@@H](CCCNC(=N)N)C(=O)N[C@@H](CCCNC(=N)N)C(=O)O)C(C)C)C(C)C)C(C)C)C(C)C)C(C)C)C(C)C)C(C)C)C(C)C [LBU-2] (H-RRVVRRVRRVVRRVVRVVRRVVRR-OH) | 1500 nM |  |  | 
CC(C)[C@H](N)C(=O)N[C@@H](CCCNC(=N)N)C(=O)N[C@@H](CCCNC(=N)N)C(=O)N[C@H](C(=O)N[C@H](C(=O)N[C@@H](CCCNC(=N)N)C(=O)N[C@@H](CCCNC(=N)N)C(=O)N[C@H](C(=O)N[C@H](C(=O)N[C@@H](CCCNC(=N)N)C(=O)N[C@H](C(=O)N[C@H](C(=O)N[C@@H](CCCNC(=N)N)C(=O)N[C@@H](CCCNC(=N)N)C(=O)N[C@H](C(=O)N[C@H](C(=O)N[C@@H](CCCNC(=N)N)C(=O)N[C@@H](CCCNC(=N)N)C(=O)N[C@H](C(=O)N[C@@H](CCCNC(=N)N)C(=O)N[C@@H](CCCNC(=N)N)C(=O)N[C@H](C(=O)N[C@H](C(=O)N[C@@H](CCCNC(=N)N)C(=O)N[C@@H](CCCNC(=N)N)C(=O)N[C@H](C(=O)N[C@H](C(=O)N[C@@H](CCCNC(=N)N)C(=O)N[C@H](C(=O)N[C@H](C(=O)N[C@@H](CCCNC(=N)N)C(=O)N[C@@H](CCCNC(=N)N)C(=O)N[C@H](C(=O)N[C@H](C(=O)N[C@@H](CCCNC(=N)N)C(=O)N[C@@H](CCCNC(=N)N)C(=O)O)C(C)C)C(C)C)C(C)C)C(C)C)C(C)C)C(C)C)C(C)C)C(C)C)C(C)C)C(C)C)C(C)C)C(C)C)C(C)C)C(C)C)C(C)C)C(C)C)C(C)C [LBU-3] (H-VRRVVRRVVRVVRRVVRRVRRVVRRVVRVVRRVVRR-OH; N-terminus and C-terminus assumed) | 1500 nM | 1500 nM (≈ 6.92 µg/mL) |  | 
CC(C)[C@H](NC(=O)[C@H](Cc1c[nH]c2ccccc12)NC(=O)[C@H](CCCNC(=N)N)NC(=O)[C@H](CCCNC(=N)N)NC(=O)[C@@H](NC(=O)[C@@H](NC(=O)[C@H](CCCNC(=N)N)NC(=O)[C@@H](NC(=O)[C@@H](NC(=O)[C@@H](N)CCCNC(=N)N)C(C)C)C(C)C)C(C)C)C(C)C)C(=O)N[C@@H](CCCNC(=N)N)C(=O)N[C@@H](CCCNC(=N)N)C(=O)O [WLBU-1] (H-RVVRVVRRWVRR-OH; N-terminus and C-terminus assumed) | 30,000 nanomolar | 10,000 nanomolar |  | 
LL37: human cathelicidin, processed form a 37-amino acid amphiphilic α-helical cationic host derived antimicrobial peptide (LLGDFFRKSKEKIGKEFKRIVQRIKDFLRNLVPRTES; Antibacterial peptide LL-37; UniProt P49913 134-170, looked up) [reference compound] |  |  | not affected by NaCl inclusion | 
RRVVRRVRRVVRRVVRVVRRVVRRVRRVVRRVVRVVRRVVRR [LBU-3.5] |  |  |  | 0.4 µM
RVVRVVRRVVRRVRRVVRRVVRVVRRVVRRVRRVVRRVVRVVRRVVRR [LBU-4] | 800 nM | 800 nM |  | 
